Each structure is given as a SMILES string. Structures can show the parent of a compound that is named as a salt.

Series [1] addresses T1, sclerostin (Homo sapiens, UniProt Q9BQB4).
T1 construct: host or cells: human embryonic cells (reporter cells)
T1 sequence (Q9BQB4 24-213): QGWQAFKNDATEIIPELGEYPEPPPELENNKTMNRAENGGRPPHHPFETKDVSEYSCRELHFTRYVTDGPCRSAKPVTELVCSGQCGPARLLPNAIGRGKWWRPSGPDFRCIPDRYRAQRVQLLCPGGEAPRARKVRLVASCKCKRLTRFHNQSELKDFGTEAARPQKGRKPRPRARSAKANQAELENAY
In words: Modulation of sclerostin/Wnt activity (sclerostin inhibition assay): restoring Wnt3a signaling in the presence of sclerostin. It is filed as cell-based. As to conditions: IC100 class; Wnt3a signaling in human embryonic cells in presence of sclerostin.

The test system of series [2] is MC3T3-E1 (mouse calvarial) osteoblast cells. In words: Rescue of sclerostin inhibition of mineralization (total calcium). It is filed as cell-based. As to conditions: Mus musculus, MC3T3-E1; IC100 class; calcium concentration, MC3T3 osteoblast cells treated with sclerostin; read-out: Sclerostin Inhibition of Mineralization; improvement over sclerostin alone. The procedure: Mineralization (crystalline calcium phosphate formation) represents an in vitro model of bone formation. […] Following the protocol described in Li et al., Compounds were assayed for their ability to rescue the inhibition of mineralization by sclerostin in MC3T3 osteoblast cells.

For series [3], the system named is MC3T3 osteoblast cells. In words: Osteocalcin (OCN) secretion, bone formation marker, ELISA. It is filed as cell-based, mouse. Conditions: Mus musculus; IC100 class; OCN secreted from MC3T3 osteoblast cells treated with sclerostin. The procedure:
Bone formation can also be assayed in vitro or in vivo using a serum marker for bone formation, osteocalcin (OCN), available from Biomedical Tecnhnologies, Inc. (Stoughton, Mass.). Following the manufacturer's protocol for the mouse osteocalcin EIA kit (described at the website www.btiinc.com/page/cata2.html#mouse_osteocalcin), bone formation in MC3T3 osteoblast cells was assayed by measuring the concentration of OCN.

For series [4], the target named is T2, hERG potassium channel (Homo sapiens, UniProt Q12809).
T2 construct: expressed in transfected cells; host or cells: CHO-K1
The series can be described thus: hERG automated patch clamp assay. The series is classed as cell-based. Conditions: inhibition of hERG tail current, 5 minutes at room temperature, CHO-K1 cells stably expressing hERG. The procedure:
One major type of cardiovascular toxicity associated with pharmaceutical drugs is caused by drug effects on cardiac ion channels like hERG. Drug-induced inhibition of hERG results in a prolonged QT interval, which can lead to a life-threatening ventricular arrhythmia. Therefore, the inhibitory effect of compounds described in Examples 1-46 on the hERG potassium channel was evaluated using an automated patch clamp assay as described in Mathes, C. (2006) Expert Opin. Ther. Targets, 10 (2): 319-327. CHO-K1 cells stably expressing hERG channels were used.

T2 sequence (Q12809 whole entry): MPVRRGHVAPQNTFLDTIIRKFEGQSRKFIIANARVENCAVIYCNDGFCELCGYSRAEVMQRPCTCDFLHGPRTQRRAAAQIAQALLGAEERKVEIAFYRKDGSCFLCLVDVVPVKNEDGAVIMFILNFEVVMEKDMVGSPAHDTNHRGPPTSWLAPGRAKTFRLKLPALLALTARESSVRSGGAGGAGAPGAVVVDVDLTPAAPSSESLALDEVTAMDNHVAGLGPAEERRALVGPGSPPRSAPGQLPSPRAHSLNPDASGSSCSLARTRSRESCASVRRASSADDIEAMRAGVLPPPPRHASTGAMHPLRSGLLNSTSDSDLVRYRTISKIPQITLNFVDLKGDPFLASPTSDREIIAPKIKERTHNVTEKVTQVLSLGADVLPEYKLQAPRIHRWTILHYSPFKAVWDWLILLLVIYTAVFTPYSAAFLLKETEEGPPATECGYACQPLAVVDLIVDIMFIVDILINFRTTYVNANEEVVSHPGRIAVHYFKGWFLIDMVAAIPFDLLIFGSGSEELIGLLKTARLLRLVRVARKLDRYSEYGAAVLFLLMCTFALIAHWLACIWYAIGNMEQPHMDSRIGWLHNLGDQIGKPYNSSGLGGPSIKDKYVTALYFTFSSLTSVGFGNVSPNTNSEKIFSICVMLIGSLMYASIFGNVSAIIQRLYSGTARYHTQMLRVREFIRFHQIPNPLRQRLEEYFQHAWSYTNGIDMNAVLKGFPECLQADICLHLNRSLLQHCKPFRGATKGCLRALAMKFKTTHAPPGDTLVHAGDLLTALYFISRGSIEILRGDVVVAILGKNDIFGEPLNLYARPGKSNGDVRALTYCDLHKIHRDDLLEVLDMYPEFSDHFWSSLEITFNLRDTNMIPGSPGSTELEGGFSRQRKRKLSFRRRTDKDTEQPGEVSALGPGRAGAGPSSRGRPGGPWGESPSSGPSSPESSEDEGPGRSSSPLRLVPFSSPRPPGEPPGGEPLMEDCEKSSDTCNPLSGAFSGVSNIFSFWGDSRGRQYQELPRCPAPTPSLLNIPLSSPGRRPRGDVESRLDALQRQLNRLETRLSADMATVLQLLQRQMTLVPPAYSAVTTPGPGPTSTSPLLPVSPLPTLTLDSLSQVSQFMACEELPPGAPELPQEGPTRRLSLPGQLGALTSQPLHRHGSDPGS

Consider `COc1ccc2c3ccnc(C)c3n(CCCN3CCOCC3)c2c1` [Example 11, 4-(3-(7-methoxy-1-methyl-9H-pyrido[3,4-b]indol-9-yl)propyl)morpholine formate], for which, in series [1], the “Sclerostin Inhibition Assay; improvement over sclerostin alone.” value was “++ (++ indicates an IC100 < 10 μM)”. Moreover, the IC100 in series [2] and in series [3] was less than 10 µM throughout. Also, the “hERG (1uM)” value in series [4] is given as “+ (+ indicates less than 50% inhibition of hERG tail current)”.

In the case of `CC(Cn1c2ccccc2c2cccnc21)N(C)C` (stereo not drawn) [Example 1, N,N-dimethyl-1-(9H-pyrido[2,3-b]indol-9-yl)propan-2-amine], the “Sclerostin Inhibition Assay; improvement over sclerostin alone.” value in series [1] is reported as “+ (+ indicates an IC100 > 10 μM)”. The IC100 in series [2] and in series [3] was more than 10 µM throughout. In addition, the “hERG (1uM)” value in series [4] is recorded as “+ (+ indicates less than 50% inhibition of hERG tail current)”.

For `Cc1nccc2c3ccc(O)cc3n(CCN3CCOCC3)c12` [Example 13, 1-methyl-9-(2-morpholinoethyl)-9H-pyrido[3,4-b]indol-7-ol], in series [1], the “Sclerostin Inhibition Assay; improvement over sclerostin alone.” value is recorded as “++ (++ indicates an IC100 < 10 μM)”. Also, the IC100 in series [2] and in series [3] was less than 10 µM throughout. The “hERG (1uM)” value in series [4] is reported as “+ (+ indicates less than 50% inhibition of hERG tail current)”.

The values above are taken from patent US11267814B2, “Compounds for bone growth” (OsteoQC Inc., priority 2013, dated 2022).
